Common to all, as to test: NCI tumour cell line growth inhibition, 48 h
In experiment [1] the test system is SW-620 colon.
The test system of experiment [2] is U251 CNS.
Experiment [3] has as its system OVCAR-8 ovarian.
Experiment [4] concerns SNB-75 CNS.
Experiment [5] has as its system HCT-15 colon.
Experiment [6] deals with NCI-H226 lung.
Experiment [7] has as its system SN12C renal.
Experiment [8] relates to RXF 393 renal.

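Cells were grown in 96-well plates and exposed to each compound for 48 hours at five concentrations; endpoints were interpolated linearly between bracketing concentrations, or set to the highest concentration if not reached. Abbreviation: GI50, concentration required for 50% inhibition of growth. Definition used: TGI = concentration required for complete inhibition of growth.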 Some results are limits rather than exact numbers.

Take `C/C(=C\CNc1ncnc2c1ncn2C1CCCCO1)COP(=O)(O)O` (stereo unspecified): the TGI in experiment [1], in experiment [2], in experiment [3], in experiment [4], in experiment [5] and in experiment [6] was > 100 µM each time. For the same molecule, the TGI in experiment [7] and in experiment [8] was > 100 µM in each case.
Take `CC(C)(C)c1cc(Cc2ccc(S(C)(=O)=O)cc2)c(O)c(C(C)(C)C)c1`: the TGI in experiment [1] was determined as 31.2 µM; in experiment [2], 28.7 µM; in experiment [3], 28.1 µM; in experiment [4], 28 µM; in experiment [5], 31 µM; in experiment [7], 28.6 µM. In experiment [8], this molecule showed a TGI of 26.1 µM.
As to `Nc1nc2c(ncn2C2OC(CO)C(O)C2O)c(=O)o1` (stereo unspecified), the TGI in experiment [1] was > 93.6 µM; in experiment [2], > 100 µM; in experiment [3], > 100 µM; in experiment [4], > 100 µM; in experiment [5] it was > 100 µM; in experiment [6], > 100 µM. Moreover, the TGI in experiment [7] and in experiment [8] was > 100 µM throughout.
On to `NNC(=O)N/N=C(/CC1(O)C(=O)Nc2ccc(Br)cc21)c1ccccc1` (stereo unspecified), for which the TGI in experiment [1], in experiment [4], in experiment [5], in experiment [6] and in experiment [7] was > 100 µM throughout.
Take `COc1c(CC(C)=O)c2ccccc2n1C(C)=O`: the TGI in experiment [1], in experiment [2], in experiment [3], in experiment [4], in experiment [5] and in experiment [7] was > 100 µM each time. Moreover, the TGI in experiment [8] is > 100 µM.
In the case of `[pH]1p2[pH]p3p1p3[pH]2.c1cc[c]([Ge]([c]2ccccc2)[c]2ccccc2)cc1.c1cc[c]([Ge]([c]2ccccc2)[c]2ccccc2)cc1.c1cc[c]([Ge]([c]2ccccc2)[c]2ccccc2)cc1`, the GI50 in experiment [1] is 16.3 µM; in experiment [2], 7.54 µM; in experiment [3], 13.5 µM; in experiment [4] it was 10.1 µM; in experiment [6], 20.5 µM; in experiment [7], 15.1 µM. For the same molecule, the GI50 in experiment [8] is 64.9 µM. Besides, the TGI in experiment [1] came to 29.9 µM; in experiment [2], 19.7 µM; in experiment [3], 35.3 µM; in experiment [4] it was 32.4 µM; in experiment [6], 37.2 µM; in experiment [7], 29.7 µM. The TGI in experiment [8] is > 100 µM.
Regarding `CC(=O)[CH-]C(=O)c1ccccc1.CC(=O)[CH-]C(=O)c1ccccc1.CC(=O)[CH-]C(=O)c1ccccc1.[Cl-].[Hf+4]`, the GI50 in experiment [1] was 52.2 µM; in experiment [2] it was 22 µM; in experiment [3], 27.9 µM; in experiment [4], 22.2 µM; in experiment [5] it was 23.9 µM; in experiment [7] it was 28.8 µM. Moreover, in experiment [8], the GI50 is 47.4 µM. Further, the TGI in experiment [1] was > 100 µM; in experiment [2], > 100 µM; in experiment [3], > 100 µM; in experiment [4], 70.4 µM; in experiment [5] it was > 100 µM; in experiment [7], > 100 µM. For the same molecule, the TGI in experiment [8] is > 100 µM.
On to `c1ccc(-c2sc(-c3ccccc3)c3c2C(c2ccccc2)c2c(-c4ccccc4)sc(-c4ccccc4)c2C3c2ccccc2)cc1` (stereo unspecified), for which the TGI in experiment [1], in experiment [2], in experiment [3], in experiment [4], in experiment [5] and in experiment [6] was > 100 µM in each case. In addition, the TGI in experiment [7] and in experiment [8] was > 100 µM each time.
Turning to `C=C1C2CCCC1C1(S(C)(=O)=O)CCCCC21O` (stereo unspecified), the TGI in experiment [1], in experiment [2], in experiment [3], in experiment [4], in experiment [5] and in experiment [6] was > 100 µM in each case. In addition, the TGI in experiment [7] was > 100 µM.
Consider `CCP(C)(=O)CC`, for which the TGI in experiment [1], in experiment [2], in experiment [3], in experiment [4], in experiment [5] and in experiment [6] was > 100 µM throughout. Moreover, the TGI in experiment [7] and in experiment [8] was > 100 µM in each case.
Regarding `CS(=O)(=O)ON1C(=O)c2ccc(N)cc2C1=O`, the TGI is > 100 µM in experiment [1]; > 100 µM in experiment [2]; 60.8 µM in experiment [3]; > 100 µM in experiment [4]; > 100 µM in experiment [5]; > 100 µM in experiment [6]. Besides, the TGI is > 100 µM in experiment [7] and > 71 µM in experiment [8].
As for `Cc1cc(C)c([O-])c(-[n+]2c(-c3ccccc3)cc(-c3ccccc3)cc2-c2ccccc2)c1`, the TGI was 15.7 µM in experiment [1]; 14.9 µM in experiment [2]; 17.7 µM in experiment [3]; 17.5 µM in experiment [4]; 25.4 µM in experiment [5]; 24.9 µM in experiment [6]. Moreover, the TGI is 18.5 µM in experiment [7] and 20.2 µM in experiment [8].
For the molecule `O=C(CC(=O)N1N=C(n2ccc3ccccc32)CC1c1ccccc1)Nc1ccccc1Cl` (stereo unspecified), the TGI in experiment [1], in experiment [2], in experiment [3], in experiment [4], in experiment [5] and in experiment [7] was > 100 µM each time. In experiment [8], the TGI is > 100 µM.
`COc1ccc(C(=O)C(c2ccc(OC)cc2)C2(O)C(=O)Nc3c(Cl)cc(Cl)cc32)cc1` (stereo unspecified): the TGI was 39.1 µM in experiment [1]; > 100 µM in experiment [2]; 56.2 µM in experiment [3]; 58.6 µM in experiment [4]; 49.8 µM in experiment [5]; 36.5 µM in experiment [6]. Besides, the TGI worked out at 35.6 µM in experiment [7] and 39.6 µM in experiment [8].
On to `Cc1[nH]c2ccccc2c1/C=C/c1c(C)[nH]c2ccccc12`, for which the TGI in experiment [1], in experiment [2], in experiment [3], in experiment [4], in experiment [5] and in experiment [6] was > 100 µM throughout. Besides, the TGI in experiment [8] was > 100 µM.
With `O=C1C=C(Nc2cc(Cl)ccc2Cl)c2ccccc2C1=O`, the TGI in experiment [1] was > 100 µM; in experiment [2] it was > 100 µM; in experiment [3] it was 56.9 µM; in experiment [4] it was 70.3 µM; in experiment [5], > 100 µM; in experiment [6] it was 47.8 µM. Moreover, the TGI in experiment [7] and in experiment [8] was > 100 µM throughout.
Regarding `Cc1c(C(=O)/C=C/c2ccc([N+](=O)[O-])cc2)[n+](=O)c2ccccc2n1[O-]`, the TGI in experiment [1], in experiment [2], in experiment [3], in experiment [4], in experiment [6] and in experiment [7] was > 100 µM throughout. Also, the TGI in experiment [8] was > 100 µM.
As to `NC(N)=NCCCC(Nc1c2ccccc2nc2ccccc12)C(=O)O` (stereo unspecified), the TGI in experiment [1], in experiment [2], in experiment [3], in experiment [4], in experiment [5] and in experiment [6] was > 100 µM in each case. Further, the TGI in experiment [7] and in experiment [8] was > 100 µM throughout.
As to `COC12OCCN(C)C1=CC(=O)C1N=NCC12` (stereo unspecified), the TGI in experiment [1], in experiment [2], in experiment [3], in experiment [4], in experiment [5] and in experiment [6] was > 100 µM throughout. In addition, the TGI in experiment [7] and in experiment [8] was > 100 µM in each case.
`CCOC(=O)C1(C)C2=CC=C(O2)C(C)(C)C2=CC=C(O2)C(C)(C)C2=CC=C(O2)C(C)(C)C2=CC=C1O2`: the TGI in experiment [1], in experiment [2], in experiment [3], in experiment [5], in experiment [6] and in experiment [7] was > 100 µM each time. In addition, the TGI in experiment [8] is > 100 µM.
For the molecule `O=C1CCC2(c3ccccc3)OCC([C@@H](O)c3ccccc3)N12` (stereo partly specified), the TGI in experiment [1], in experiment [2], in experiment [3], in experiment [4], in experiment [5] and in experiment [7] was > 100 µM each time. The TGI in experiment [8] is > 100 µM.
Turning to `Oc1ccc(I)c2cccnc12`, the TGI was > 100 µM in experiment [1]; > 100 µM in experiment [2]; > 100 µM in experiment [3]; > 100 µM in experiment [5]; 41.8 µM in experiment [6]; > 100 µM in experiment [7]. In experiment [8], this molecule returned a TGI of 33.1 µM.
On to `C=CCc1cc(OC)c(O)c(C(=O)/C=C/c2ccc(OC)c(OC)c2)c1`, for which the values for the TGI in experiment [1], in experiment [2] and in experiment [4] were 97.1 µM, 37.8 µM and 59.3 µM, respectively.
Regarding `CC1CN1c1c(C(=O)/C=C/c2ccc(F)cc2)c(-c2ccccc2)nn(C)c1=O` (stereo unspecified), the TGI in experiment [1] stood at 32.7 µM; in experiment [2], 28.9 µM; in experiment [3] it was 27.6 µM; in experiment [4], 28.7 µM; in experiment [6], 25.3 µM; in experiment [7] it was 29.1 µM. Further, the TGI in experiment [8] turned out to be 22 µM.

The values above are taken from PubChem BioAssay (NCI).
